Reference: patent US20220087983A1, “ACTIVATING PYRUVATE KINASE R” (FORMA Therapeutics, Inc., priority 2020, published 2022)
Where “and” joins values, the source holds several entries; their conditions need not be identical. Equal values may be shown once. Read-outs that look alike come from different tables or passages of the source.

Columns and labels:
[1] = Phase 1 SAD/MAD/food effect: plasma pharmacokinetics in healthy volunteers; type: in vivo, human
Text: This is a first-in-human (FIH), Phase 1 study of Compound 1 that will characterize the safety, PK, and PD of Compound 1 after a single dose and after repeated dosing first in healthy adult volunteers and then in adolescents or adults with sickle cell disease. Initially, a dose range of Compound 1 in single ascending dose (SAD) escalation cohorts will be explored in healthy subjects. Enrollment of healthy subjects into 2-week multiple ascending dose (MAD) escalation cohorts will be initiated once the safety and PK from at least two SAD cohorts is available to inform the doses for the 2-week MAD portion of the study. The MAD cohorts will then run in parallel to the single dose cohorts. A single dose cohort is planned to understand food effects (FE) on the PK of Compound 1. […] Multiple dose studies in SCD subjects will then be initiated upon completion of MAD studies in healthy volunteers. Compound 1 will be administered in 25 mg and 100 mg tablets delivered orally, prepared as described in Example 1, Step 7.
In this study, SAD/MAD cohorts are randomized (3 to 1) to receive Compound 1 or placebo (P). Compound 1 was evaluated first in 4 healthy SAD cohorts and 4 healthy MAD (14-day dosing period) cohorts. Based on the safety, and PK/PD profile from HS, Compound 1 is then evaluated in 1 SCD SAD cohort and 2 SCD MAD cohorts. Specifically, based on the safety and pharmacokinetic/pharmacodynamics (PK/PD) profile in healthy volunteer studies, Compound 1 is evaluated in patients (pts) with SCD, first in a single dose (SD or SAD) cohort and then in multiple-dose (MD or MAD) cohorts (14-day and 12-week). Safety assessments include AEs, vital signs, ECGs and laboratory parameters. PK/PD blood sampling was performed on Day 1 (SAD/MAD) and Day 14 (MAD) and up to 72 h after the last dose and at the end-of-study visit. PD parameters included 2,3-DPG, ATP, and p50 in all cohorts with additional PD studies (including oxygen scan) performed only in the SCD cohorts. PD parameters included 2,3-DPG, ATP, p50, RBC deformability with controlled deoxygenation and reoxygenation (Lorrca® oxygen scan) and varying osmolality (Lorrca® osmoscan)). To maintain study blind, pt identifiers were removed when needed.
Primary Outcome Measures: • 1. Incidence, frequency, and severity of adverse events (AEs) per CTCAE v5.0 of a single ascending dose and multiple ascending doses of Compound 1 in adult healthy volunteers and SCD patients. Incidence of abnormal laboratory test results (clinical chemistry, endocrine hematology, urinalysis). Change from baseline in vital signs (blood pressure, respiratory rate, heart rate, and oral temperature). Incidence of treatment-emergent clinically significant abnormal findings in ECGs. • [Time Frame: Up to 3 weeks of monitoring] • 2. […] Area under the plasma concentration-time curve from time zero until the 24-hour time point (AUC0-24) • [Time Frame: Up to 3 weeks of testing] • 5. Area under the plasma concentration-time curve from time zero until last quantifiable time point (AUC0-last) • [Time Frame: Up to 3 weeks of testing] • 6. Area under the plasma concentration-time curve from time zero to infinity (AUC0-inf) • [Time Frame: Up to 3 weeks of testing] • 7. […] Apparent volume of distribution (Vd/F) • [Time Frame: Up to 3 weeks of testing] • 10. Terminal disposition rate constant (Lz) • [Time Frame: Up to 3 weeks of testing] • 11.
Four healthy SAD cohorts were evaluated at doses of 200, 400, 700, and 1000 mg, and four healthy MAD cohorts received 200 to 600 mg total daily doses for 14 days at QD or BID dosing (100 mg BID, 200 mg BID, 300 mg BID, and 400 mg QD). In the food effect (FE) cohort, 10 healthy subjects received 400 mg of Compound 1 QD with and without food.

[2] = target: T1, wt-PKR in mature human erythrocytes (Homo sapiens, UniProt P30613); test: Cell assay: PKR activation in human RBCs (Biovision Pyruvate Kinase Assay); type: cell-based
T1 construct: host or cells: purified human RBCs from donors
Experimental: The activation of wt-PKR by Compound 1 in mature human erythrocytes ex vivo was evaluated in purified RBCs purchased from Research Blood Components. Cells treated with Compound 1 for 3 hr in glucose-containing media were washed, lysed, and assayed using a Biovision Pyruvate Kinase Assay (K709-100). The assay was repeated multiple times to account for donor-to-donor variability and the relatively narrow dynamic range.

[3] = human, plasma, oral, HV (N = 6), single dose 700 mg, geometric mean (geometric CV)

T1 sequence (P30613 whole entry): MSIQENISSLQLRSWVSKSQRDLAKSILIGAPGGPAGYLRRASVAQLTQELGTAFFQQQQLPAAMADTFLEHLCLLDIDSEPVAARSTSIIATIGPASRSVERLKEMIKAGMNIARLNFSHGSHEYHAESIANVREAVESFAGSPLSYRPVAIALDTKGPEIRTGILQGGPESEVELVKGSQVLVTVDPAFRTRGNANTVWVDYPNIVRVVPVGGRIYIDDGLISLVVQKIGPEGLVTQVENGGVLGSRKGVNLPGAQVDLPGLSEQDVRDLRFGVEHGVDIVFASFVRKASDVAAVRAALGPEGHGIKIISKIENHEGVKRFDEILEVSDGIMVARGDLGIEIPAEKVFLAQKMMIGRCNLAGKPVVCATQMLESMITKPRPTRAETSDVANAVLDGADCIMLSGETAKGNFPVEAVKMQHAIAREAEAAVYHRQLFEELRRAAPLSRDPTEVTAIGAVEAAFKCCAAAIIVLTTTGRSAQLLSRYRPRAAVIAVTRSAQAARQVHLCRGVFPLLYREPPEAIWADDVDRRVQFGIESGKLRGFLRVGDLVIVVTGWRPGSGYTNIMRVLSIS

O=C([C@H](CO)c1ccccc1)N1CC2=C(C1)CN(S(=O)(=O)c1cnc3c(c1)OCCO3)C2 (single isomer, unassigned) [Compound 1]
exposure under fed/fasted conditions ([1]; food effect cohort, 400 mg): similar | PK linearity and time dependence ([1]; healthy subject studies): linear and time-independent PK | observed clearance on day 1 and day 14 ([1]; healthy subjects, 14 days of dosing): unchanged | half-life ([1]; human, plasma, oral, 700 mg, HV (N = 6), single dose 700 mg, geometric mean (geometric CV), read-out: t1/2 (converted)): 13.3 h | half-life ([1]; human, plasma, oral, biphasic PK profile, read-out: terminal half-life): 12 to 14 h | half-life ([1]; human, plasma, oral, healthy volunteers, single doses up to 700 mg, read-out: T1/2): 11 to 15 h | AUC(0-t) ([1]; human, plasma, oral, HS and SCD subjects similar, read-out: AUC0-24): ~7000 ng·h/mL | half-life ([1]; human, plasma, oral, HS and SCD subjects similar, read-out: T½): 10 to 13 h | AUC(0-inf) [1, 3]: 7000 ng·h/mL | Cmax [1, 3]: 2200 ng/mL | Tmax ([1]; human, plasma, oral, HV (N = 6), single dose 700 mg, median [min, max]): 0.5 h | EC50 ([2]; Cell Assay of Example 4): < 0.5 µM | Max − Min (%) ([2]; human RBCs, 3 hr, individual replicates 1-4): <150% and <100% and <50% | Mean maximum activation increase (Max − Min) ([2]; human RBCs, 3 hr, mean of replicates): <100%
